Laboratory results: PubChem BioAssay AID202 (DTP/NCI, 2004)
“And” between values parts separate entries of the source, which are not always exact repeats. Equal values may be shown once.

System: HT29 xenograft, nude mice, s.c., tumor weight T/C%
Test: NCI In Vivo Anticancer Drug Screen. Data for tumor model HT29;CX-1 Human Adenocarcinoma (MER+) (subcutaneous) in NU/NU Swiss (nude) mice
Conditions: endpoint: optimum tumor weight change, higher = larger tumour
Description: The antitumor activity of compounds was measured in mice bearing transplantable tumors. Survival or tumor size were measured and the results are expressed as the measurement made in the treated group (T) divided by the measurement made in the vehicle treated control group (C). The tumor model used in this assay is HT29;CX-1 Human Adenocarcinoma (MER+) (subcutaneous) in NU/NU Swiss (nude) mice

[1] = dose: 50.0 mg/kg/injection, schedule: Q04DX003 (ip), vehicle: suspension in saline
[2] = dose: 50.0 mg/kg/injection, schedule: Q04DX003 (ip), vehicle: saline
[3] = dose: 100.0 mg/kg/injection, schedule: Q04DX003 (ip), vehicle: saline
[4] = dose: 200.0 mg/kg/injection, schedule: Q04DX003 (ip), vehicle: saline
[5] = dose: 100.0 mg/kg/injection, schedule: Q04DX003 (ip), vehicle: suspension in saline
[6] = dose: 200.0 mg/kg/injection, schedule: Q04DX003 (ip), vehicle: suspension in saline
[7] = dose: 400.0 mg/kg/injection, schedule: Q04DX003 (ip), vehicle: suspension in saline
[8] = dose: 400.0 mg/kg/injection, schedule: Q04DX003 (ip), vehicle: saline
[9] = dose: 25.0 mg/kg/injection, schedule: Q04DX003 (ip), vehicle: Klucel (hydroxypropylcellulose) (HPC)
[10] = dose: 50.0 mg/kg/injection, schedule: Q04DX003 (ip), vehicle: Klucel (hydroxypropylcellulose) (HPC)

With C=CC(=O)N1CN(C(=O)C=C)CN(C(=O)C=C)C1 the T/C (dose: 3.13 mg/kg/injection, schedule: Q01DX003 (ip), vehicle: saline with Tween-80) was 62 % of control and the T/C (dose: 6.25 mg/kg/injection, schedule: Q01DX003 (ip), vehicle: saline with Tween-80) was 93 % of control.

Cc1c(CNc2ccc(C(=O)NC(CC(=O)O)C(=O)O)cc2)ccc2nc(N)nc(N)c12 (centres undefined) was tested, and the T/C (dose: 3.0 mg/kg/injection, schedule: Q04DX003 (ip), vehicle: saline with Tween-80) was 109 % of control, the T/C (dose: 6.0 mg/kg/injection, schedule: Q04DX003 (ip), vehicle: saline with Tween-80) was 153 % of control and the T/C (dose: 12.0 mg/kg/injection, schedule: Q04DX003 (ip), vehicle: saline with Tween-80) was 92 % of control.

In the case of N=C(N)SCc1c2ccccc2c(CSC(=N)N)c2ccccc12, the T/C [1] is reported as 88 % of control.

With N=C(N)Sc1ccccn1 the T/C [2] was 77 % of control, the T/C [3] was 112 % of control and the T/C [4] was 65 % of control.

With C[C@]12CC[C@@H]3c4ccc(OC(=O)Cc5ccc(N(CCCl)CCCl)cc5)cc4CC[C@H]3[C@@H]1CC[C@@H]2OC(=O)Cc1ccc(N(CCCl)CCCl)cc1 the T/C (dose: 150.0 mg/kg/injection, schedule: Q04DX003 (ip), vehicle: saline with Tween-80) was 60 % of control and the T/C (dose: 1200.0 mg/kg/injection, schedule: Q04DX003 (ip), vehicle: saline with Tween-80) was 53 % of control and 66 % of control.

CC(=O)c1c(O)c(C)c(O)c2c1OC1=CC(=O)C(C(C)=O)C(=O)C12C (centres undefined) was tested, and the T/C (dose: 50.0 mg/kg/injection, schedule: Q01DX003 (ip), vehicle: sodium bicarbonate) was 88 % of control, the T/C (dose: 100.0 mg/kg/injection, schedule: Q01DX003 (ip), vehicle: sodium bicarbonate) was 97 % of control and the T/C (dose: 200.0 mg/kg/injection, schedule: Q01DX003 (ip), vehicle: sodium bicarbonate) was 82 % of control.

COc1cccc2c1C(=O)c1c(O)c3c(c(O)c1C2=O)C[C@@](O)(C(=O)CO)C[C@@H]3OC1CC(N)C(OC)C(C)O1 (some centres undefined) was tested, and the T/C (dose: 1.56 mg/kg/injection, schedule: Q04DX003 (ip), vehicle: saline) was 80 % of control.

O=C(NC1CCCCC1)OCc1c(COC(=O)NC2CCCCC2)c(-c2ccc(Cl)c(Cl)c2)n2c1CCC2 was tested, and the T/C [5] was 96 % of control, the T/C [6] was 90 % of control and the T/C [7] was 92 % of control. For the same molecule, the T/C (dose: 800.0 mg/kg/injection, schedule: Q04DX003 (ip), vehicle: suspension in saline) was 65 % of control.

With Cc1c(N)nc(C(CC(N)=O)NCC(N)C(N)=O)nc1C(=O)NC(C(=O)NC(C)C(O)CC(=O)NC(C(=O)NC(OC1OC(C)C(N)C(O)C1O)C(O)c1nc(-c2nc(C(=O)NCCCC(N)CC(=O)NCCCNCCCCN)cs2)cs1)C(C)O)C(OC1OC(CO)C(O)C(O)C1OC1OC(CO)C(O)C(OC(N)=O)C1O)c1cnc[nH]1 (centres undefined) the T/C (dose: 0.5 mg/kg/injection, schedule: Q04DX003 (ip), vehicle: saline) was 92 % of control, the T/C (dose: 1.0 mg/kg/injection, schedule: Q04DX003 (ip), vehicle: saline) was 45 % of control and the T/C (dose: 2.0 mg/kg/injection, schedule: Q04DX003 (ip), vehicle: saline) was 39 % of control.

In the case of COC(OC(CO)C(O)S(=O)(=O)O)C(O)S(=O)(=O)O (centres undefined), the T/C [6] is reported as 54 % of control and the T/C [7] is reported as 80 % of control.

In the case of CN(CO)c1nc(N(C)CO)nc(N(C)CO)n1, the T/C (dose: 25.0 mg/kg/injection, schedule: Q01DX005 (ip), vehicle: Klucel (hydroxypropylcellulose) (HPC)) is reported as 75 % of control, the T/C (dose: 25.0 mg/kg/injection, schedule: Q04DX005 (ip), vehicle: Klucel (hydroxypropylcellulose) (HPC)) is reported as 62 % of control and the T/C (dose: 25.0 mg/kg/injection, schedule: Q07DX005 (ip), vehicle: Klucel (hydroxypropylcellulose) (HPC)) is reported as 93 % of control. For the same molecule, the T/C (dose: 50.0 mg/kg/injection, schedule: Q01DX005 (ip), vehicle: Klucel (hydroxypropylcellulose) (HPC)) was 102 % of control and 123 % of control, the T/C (dose: 50.0 mg/kg/injection, schedule: Q04DX005 (ip), vehicle: Klucel (hydroxypropylcellulose) (HPC)) was 119 % of control and 120 % of control and the T/C (dose: 50.0 mg/kg/injection, schedule: Q07DX005 (ip), vehicle: Klucel (hydroxypropylcellulose) (HPC)) was 99 % of control. The T/C [5] was 75 % of control, the T/C (dose: 100.0 mg/kg/injection, schedule: Q04DX005 (ip), vehicle: Klucel (hydroxypropylcellulose) (HPC)) was 99 % of control and 116 % of control and the T/C (dose: 100.0 mg/kg/injection, schedule: Q07DX005 (ip), vehicle: Klucel (hydroxypropylcellulose) (HPC)) was 48 % of control. For the same molecule, the T/C (dose: 200.0 mg/kg/injection, schedule: Q07DX005 (ip), vehicle: Klucel (hydroxypropylcellulose) (HPC)) was 47 % of control and 58 % of control.

With O=CC(S)CO (centres undefined) the T/C [5] was 119 % of control, the T/C [6] was 96 % of control and the T/C [7] was 107 % of control.

CO[C@H]1C[C@](C)(O)Cc2cc3c(c(O)c21)C(=O)c1c(O)cc2c(c1C3=O)O[C@@H]1O[C@@]2(C)[C@H](O)[C@@H](N(C)C)[C@@H]1O was tested, and the T/C (dose: 3.13 mg/kg/injection, schedule: Q04DX003 (ip), vehicle: other) was 97 % of control, the T/C (dose: 6.25 mg/kg/injection, schedule: Q04DX003 (ip), vehicle: other) was 124 % of control and the T/C (dose: 12.5 mg/kg/injection, schedule: Q04DX003 (ip), vehicle: other) was 68 % of control. The T/C (dose: 25.0 mg/kg/injection, schedule: Q04DX003 (ip), vehicle: other) was 61 % of control and 75 % of control.

In the case of c1cc2n(n1)CCN2, the T/C [2] is reported as 42 % of control, the T/C [3] is reported as 50 % of control and the T/C [4] is reported as 63 % of control. For the same molecule, the T/C [8] was 41 % of control.

In the case of CC(=O)OCC(=O)[C@@]12OC(C)(C)O[C@@H]1C[C@H]1[C@@H]3CC(C=O)=C4C=C(OCCCl)CC[C@]4(C)[C@@]3(F)[C@@H](O)C[C@@]12C, the T/C [9] is reported as 52 % of control and 59 % of control.

With O=c1[nH]cnc2n[nH]nc12 the T/C (dose: 100.0 mg/kg/injection, schedule: Q04DX003 (ip), vehicle: Klucel (hydroxypropylcellulose) (HPC)) was 67 % of control, the T/C (dose: 200.0 mg/kg/injection, schedule: Q04DX003 (ip), vehicle: Klucel (hydroxypropylcellulose) (HPC)) was 67 % of control and the T/C (dose: 400.0 mg/kg/injection, schedule: Q04DX003 (ip), vehicle: Klucel (hydroxypropylcellulose) (HPC)) was 31 % of control.

In the case of N/C(=N\O)c1cn(C2OC(CO)C(O)C2O)c2ncnc(N)c12 (centres undefined), the T/C (dose: 5.0 mg/kg/injection, schedule: Q04DX003 (ip), vehicle: Klucel (hydroxypropylcellulose) (HPC)) is reported as 91 % of control, the T/C (dose: 10.0 mg/kg/injection, schedule: Q04DX003 (ip), vehicle: Klucel (hydroxypropylcellulose) (HPC)) is reported as 63 % of control and the T/C (dose: 20.0 mg/kg/injection, schedule: Q04DX003 (ip), vehicle: Klucel (hydroxypropylcellulose) (HPC)) is reported as 47 % of control.

For O=[N+]([O-])/C=C\c1ccc2c(c1)OCO2, the T/C [10] was 116 % of control.

In the case of CCN(CC)CCCC(C)Nc1c2ccc(Cl)cc2nc2ccc(OC)cc12 (centres undefined), the T/C (dose: 50.0 mg/kg/injection, schedule: Q04DX003 (ip), vehicle: saline with Tween-80) is reported as 89 % of control and the T/C (dose: 200.0 mg/kg/injection, schedule: Q04DX003 (ip), vehicle: saline with Tween-80) is reported as 91 % of control.

Nc1ccc(Cl)cc1N was tested, and the T/C (dose: 400.0 mg/kg/injection, schedule: Q04DX003 (ip), vehicle: saline with Tween-80) was 87 % of control and the T/C (dose: 800.0 mg/kg/injection, schedule: Q04DX003 (ip), vehicle: saline with Tween-80) was 98 % of control.

In the case of OCC1OC(n2cnc3cncnc32)C(O)C1O (centres undefined), the T/C (dose: 12.5 mg/kg/injection, schedule: Q04DX003 (ip), vehicle: saline) is reported as 49 % of control and the T/C (dose: 25.0 mg/kg/injection, schedule: Q04DX003 (ip), vehicle: saline) is reported as 48 % of control.

Nc1nc(N)c2cc(CNc3ccc(C(=O)NC(CC(=O)O)CC(=O)O)cc3)ccc2n1 was tested, and the T/C [10] was 84 % of control.

CCCC(=O)OCc1cc(=O)n(C)c2c3c4c(cc12)c(C)cc(=O)n4CO3 was tested, and the T/C [10] was 53 % of control.

With COc1cccc2c1C(=O)c1c(O)c3c(c(O)c1C2=O)C[C@@](O)(C(=O)CO)C[C@@H]3OC1CC(N)C(O)C(C)O1 (some centres undefined) the T/C (dose: 2.0 mg/kg/injection, schedule: Q04DX003 (ip), vehicle: water) was 83 % of control.

In the case of C1CCC2[N-]CC3CCCCC3[N-]CC3CCCCC3[N-]CC3CCCCC3[N-]CC2C1.[Cu] (centres undefined), the T/C (dose: 3.13 mg/kg/injection, schedule: Q04DX003 (ip), vehicle: Klucel (hydroxypropylcellulose) (HPC)) is reported as 62 % of control, the T/C (dose: 6.25 mg/kg/injection, schedule: Q04DX003 (ip), vehicle: Klucel (hydroxypropylcellulose) (HPC)) is reported as 90 % of control and the T/C (dose: 12.5 mg/kg/injection, schedule: Q04DX003 (ip), vehicle: Klucel (hydroxypropylcellulose) (HPC)) is reported as 70 % of control. The T/C [9] was 94 % of control.

With CN1N=C(N)c2cn(C3OC(COP(=O)(O)O)C(O)C3O)c3ncnc1c23 (centres undefined) the T/C (dose: 50.0 mg/kg/injection, schedule: Q04DX003 (ip), vehicle: water) was 121 % of control.

For O=C/C(Cl)=C(/Cl)C(=O)O, the T/C (dose: 12.5 mg/kg/injection, schedule: Q04DX003 (ip), vehicle: saline with Tween-80) was 86 % of control.

In the case of CC(CN1CC(=O)NC(=O)C1)N1CC(=O)NC(=O)C1 (centres undefined), the T/C [1] is reported as 73 % of control, the T/C [5] is reported as 50 % of control and the T/C [6] is reported as 57 % of control.

With CNC=O the T/C [4] was 168 % of control, the T/C [8] was 78 % of control and the T/C (dose: 800.0 mg/kg/injection, schedule: Q04DX003 (ip), vehicle: saline) was 104 % of control.
